Experimental data from PubChem BioAssay (NCI).
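Step 1: Grow cells in 96-well plates. Step 2: Expose to compound for 48 hours at 5 concentrations. Step 3: Interpolate endpoints linearly; if unreached, use highest concentration. TGI: total growth inhibition.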

Key:
Experiment in all cases: inhibition of tumour cell growth, NCI panel, 48 h
[1] = system: 786-0 renal
[2] = system: A498 renal
[3] = system: A549 NSCLC
[4] = system: ACHN renal
[5] = system: CAKI-1 renal
[6] = system: CCRF-CEM leukemia
[7] = system: COLO 205 colon
[8] = system: DLD-1 colon
[9] = system: DMS 273 small cell lung
[10] = system: EKVX NSCLC
[11] = system: HCC-2998 colon
[12] = system: HCT-116 colon
[13] = system: HCT-15 colon
[14] = system: HL-60(TB) leukemia
[15] = system: HOP-18 NSCLC
[16] = system: HOP-62 NSCLC
[17] = system: HOP-92 NSCLC
[18] = system: HT29 colon
[19] = system: IGROV1 ovarian
[20] = system: K-562 leukemia
[21] = system: KM12 colon
[22] = system: KM20L2 colon
[23] = system: LOX IMVI melanoma
[24] = system: LXFL 529 NSCLC
[25] = system: M14 melanoma
[26] = system: M19-MEL melanoma
[27] = system: MALME-3M melanoma
[28] = system: MOLT-4 leukemia
[29] = system: NCI-H226 lung
[30] = system: NCI-H23 lung
[31] = system: NCI-H460 lung
[32] = system: NCI-H522 lung
[33] = system: OVCAR-3 ovarian
[34] = system: OVCAR-4 ovarian
[35] = system: OVCAR-5 ovarian
[36] = system: OVCAR-8 ovarian
[37] = system: RPMI-8226 leukemia
[38] = system: RXF 393 renal
[39] = system: SF-268 CNS
[40] = system: SF-295 CNS
[41] = system: SF-539 CNS
[42] = system: SK-MEL-2 melanoma
[43] = system: SK-MEL-28 melanoma
[44] = system: SK-MEL-5 melanoma
[45] = system: SK-OV-3 ovarian
[46] = system: SN12C renal
[47] = system: SNB-19 CNS
[48] = system: SNB-75 CNS
[49] = system: SNB-78 CNS
[50] = system: SR leukemia
[51] = system: SW-620 colon
[52] = system: TK-10 renal
[53] = system: U251 CNS
[54] = system: UACC-257 melanoma
[55] = system: UACC-62 melanoma
[56] = system: UO-31 renal
[57] = system: XF 498 CNS
[58] = system: DMS 114 small cell lung
[59] = system: RXF-631 renal

CCC[C@H]1O[C@@H]2CC(=O)O[C@@H]2C2=C1C(=O)C=CC2=O
TGI [1]: 30.3 µM | TGI [2]: > 70.3 µM | TGI [3]: > 58.1 µM | TGI [4]: 25.7 µM | TGI [5]: 34.1 µM | TGI [6]: > 47.9 µM | TGI [7]: 9.03 µM | TGI [8]: 35.8 µM | TGI [9]: 19.5 µM | TGI [10]: > 62.4 µM | TGI [11]: > 57 µM | TGI [12]: 32.1 µM | TGI [13]: 32.4 µM | TGI [14]: 37.7 µM | TGI [15]: 31.9 µM | TGI [16]: > 95 µM | TGI [17]: 8.31 µM | TGI [18]: 43.3 µM | TGI [19]: 32.1 µM | TGI [20]: > 46.5 µM | TGI [21]: 48.3 µM | TGI [22]: 43.8 µM | TGI [23]: 39.8 µM | TGI [24]: 29.6 µM | TGI [25]: 32.8 µM | TGI [26]: 41.7 µM | TGI [27]: 32.3 µM | TGI [28]: 8.98 µM | TGI [29]: 18.4 µM | TGI [30]: 18.5 µM | TGI [31]: > 100 µM | TGI [32]: 4.68 µM | TGI [33]: 28.5 µM | TGI [34]: 29.9 µM | TGI [35]: 36 µM | TGI [36]: > 74.9 µM | TGI [37]: 74.6 µM | TGI [38]: 30.4 µM | TGI [39]: 18.7 µM | TGI [40]: 55.8 µM | TGI [41]: 33.6 µM | TGI [42]: 38.6 µM | TGI [43]: 31.5 µM | TGI [44]: 36 µM | TGI [45]: > 56.3 µM | TGI [46]: 32.6 µM | TGI [47]: > 100 µM | TGI [48]: 36 µM | TGI [49]: 45.7 µM | TGI [50]: 49.8 µM | TGI [51]: 35.7 µM | TGI [52]: > 57.3 µM | TGI [53]: > 53.7 µM | TGI [54]: 34.8 µM | TGI [55]: 32.3 µM | TGI [56]: 32.5 µM

COC1CCC(OS(C)(=O)=O)C(CO)O1 (stereo unspecified)
TGI [1]: > 100 µM | TGI [3]: > 100 µM | TGI [4]: > 100 µM | TGI [6]: > 100 µM | TGI [8]: > 100 µM | TGI [10]: > 100 µM | TGI [11]: > 100 µM | TGI [12]: > 100 µM | TGI [13]: > 100 µM | TGI [14]: > 100 µM | TGI [16]: > 100 µM | TGI [17]: > 100 µM | TGI [18]: > 100 µM | TGI [19]: > 100 µM | TGI [20]: > 100 µM | TGI [21]: > 100 µM | TGI [22]: > 100 µM | TGI [23]: > 100 µM | TGI [24]: > 100 µM | TGI [25]: > 100 µM | TGI [26]: > 100 µM | TGI [27]: > 100 µM | TGI [28]: > 100 µM | TGI [30]: > 100 µM | TGI [31]: > 100 µM | TGI [32]: > 100 µM | TGI [33]: > 100 µM | TGI [35]: > 100 µM | TGI [36]: > 100 µM | TGI [38]: > 100 µM | TGI [40]: > 100 µM | TGI [41]: > 100 µM | TGI [42]: > 100 µM | TGI [43]: > 100 µM | TGI [45]: > 100 µM | TGI [46]: > 100 µM | TGI [48]: > 100 µM | TGI [50]: > 100 µM | TGI [51]: > 100 µM | TGI [52]: > 100 µM | TGI [53]: > 100 µM | TGI [54]: > 100 µM | TGI [55]: > 100 µM | TGI [56]: > 100 µM | TGI [57]: > 100 µM

COC(=O)c1cc2c(=O)n(C)c3ccccc3n2c1C(=O)OC
TGI [1]: 50.3 µM | TGI [2]: > 100 µM | TGI [3]: > 100 µM | TGI [4]: > 100 µM | TGI [5]: > 100 µM | TGI [6]: > 100 µM | TGI [7]: > 100 µM | TGI [8]: > 100 µM | TGI [58]: > 100 µM | TGI [9]: > 100 µM | TGI [10]: 78.2 µM | TGI [11]: > 100 µM | TGI [13]: > 100 µM | TGI [16]: 36.9 µM | TGI [17]: > 100 µM | TGI [18]: > 100 µM | TGI [19]: > 100 µM | TGI [20]: > 100 µM | TGI [21]: > 100 µM | TGI [22]: > 100 µM | TGI [23]: > 100 µM | TGI [24]: > 100 µM | TGI [25]: > 100 µM | TGI [26]: > 100 µM | TGI [27]: > 100 µM | TGI [28]: > 100 µM | TGI [29]: 81.2 µM | TGI [30]: > 100 µM | TGI [31]: > 100 µM | TGI [32]: 73.7 µM | TGI [33]: > 100 µM | TGI [34]: > 100 µM | TGI [35]: > 100 µM | TGI [36]: > 100 µM | TGI [37]: > 100 µM | TGI [38]: > 100 µM | TGI [59]: > 100 µM | TGI [39]: > 100 µM | TGI [40]: > 100 µM | TGI [41]: 75.8 µM | TGI [42]: > 100 µM | TGI [43]: > 100 µM | TGI [44]: > 100 µM | TGI [45]: 66.8 µM | TGI [46]: > 100 µM | TGI [47]: > 100 µM | TGI [48]: 37.3 µM | TGI [49]: > 100 µM | TGI [51]: > 100 µM | TGI [52]: 77.4 µM | TGI [53]: 58.8 µM | TGI [54]: > 100 µM | TGI [55]: > 100 µM | TGI [56]: > 100 µM | TGI [57]: 51.3 µM

C=CCC1(CN(C)C)CC/C(=C\c2ccc(OC)cc2)C1=O (stereo unspecified)
TGI [1]: > 100 µM | TGI [2]: > 100 µM | TGI [3]: > 100 µM | TGI [4]: > 100 µM | TGI [6]: > 100 µM | TGI [7]: > 100 µM | TGI [8]: > 100 µM | TGI [58]: > 100 µM | TGI [9]: > 100 µM | TGI [10]: > 100 µM | TGI [11]: > 100 µM | TGI [12]: > 100 µM | TGI [13]: > 100 µM | TGI [14]: 45.6 µM | TGI [15]: > 100 µM | TGI [16]: > 100 µM | TGI [17]: > 100 µM | TGI [18]: > 100 µM | TGI [19]: > 100 µM | TGI [20]: > 100 µM | TGI [21]: > 100 µM | TGI [22]: > 100 µM | TGI [23]: > 100 µM | TGI [24]: > 100 µM | TGI [25]: > 100 µM | TGI [26]: > 100 µM | TGI [27]: > 100 µM | TGI [28]: > 100 µM | TGI [29]: > 100 µM | TGI [30]: > 100 µM | TGI [31]: > 100 µM | TGI [32]: 81.9 µM | TGI [33]: > 100 µM | TGI [34]: > 100 µM | TGI [35]: > 100 µM | TGI [36]: > 100 µM | TGI [37]: 52.6 µM | TGI [38]: > 100 µM | TGI [59]: 49 µM | TGI [39]: > 100 µM | TGI [40]: > 100 µM | TGI [41]: > 100 µM | TGI [42]: > 100 µM | TGI [43]: > 100 µM | TGI [44]: > 100 µM | TGI [46]: > 100 µM | TGI [47]: > 100 µM | TGI [48]: > 100 µM | TGI [49]: > 100 µM | TGI [51]: > 100 µM | TGI [52]: > 100 µM | TGI [53]: > 100 µM | TGI [54]: > 100 µM | TGI [55]: > 100 µM | TGI [56]: > 100 µM
